Measured values published in article PMC3813382 (The Journal of General Physiology, 2013).
Where a chain is given by its changes, count along the chain named.

What was measured:
A266G Slo2.1 channels = molecular target: T1, A266G Slo2.1 channels (Homo sapiens, UniProt Q6UVM3, A266G); test: Activation of ISlo2.1 by NFA, two-electrode voltage clamp in oocytes; assay type: cell-based
T1 sequence (Q6UVM3 1-1135 A266G): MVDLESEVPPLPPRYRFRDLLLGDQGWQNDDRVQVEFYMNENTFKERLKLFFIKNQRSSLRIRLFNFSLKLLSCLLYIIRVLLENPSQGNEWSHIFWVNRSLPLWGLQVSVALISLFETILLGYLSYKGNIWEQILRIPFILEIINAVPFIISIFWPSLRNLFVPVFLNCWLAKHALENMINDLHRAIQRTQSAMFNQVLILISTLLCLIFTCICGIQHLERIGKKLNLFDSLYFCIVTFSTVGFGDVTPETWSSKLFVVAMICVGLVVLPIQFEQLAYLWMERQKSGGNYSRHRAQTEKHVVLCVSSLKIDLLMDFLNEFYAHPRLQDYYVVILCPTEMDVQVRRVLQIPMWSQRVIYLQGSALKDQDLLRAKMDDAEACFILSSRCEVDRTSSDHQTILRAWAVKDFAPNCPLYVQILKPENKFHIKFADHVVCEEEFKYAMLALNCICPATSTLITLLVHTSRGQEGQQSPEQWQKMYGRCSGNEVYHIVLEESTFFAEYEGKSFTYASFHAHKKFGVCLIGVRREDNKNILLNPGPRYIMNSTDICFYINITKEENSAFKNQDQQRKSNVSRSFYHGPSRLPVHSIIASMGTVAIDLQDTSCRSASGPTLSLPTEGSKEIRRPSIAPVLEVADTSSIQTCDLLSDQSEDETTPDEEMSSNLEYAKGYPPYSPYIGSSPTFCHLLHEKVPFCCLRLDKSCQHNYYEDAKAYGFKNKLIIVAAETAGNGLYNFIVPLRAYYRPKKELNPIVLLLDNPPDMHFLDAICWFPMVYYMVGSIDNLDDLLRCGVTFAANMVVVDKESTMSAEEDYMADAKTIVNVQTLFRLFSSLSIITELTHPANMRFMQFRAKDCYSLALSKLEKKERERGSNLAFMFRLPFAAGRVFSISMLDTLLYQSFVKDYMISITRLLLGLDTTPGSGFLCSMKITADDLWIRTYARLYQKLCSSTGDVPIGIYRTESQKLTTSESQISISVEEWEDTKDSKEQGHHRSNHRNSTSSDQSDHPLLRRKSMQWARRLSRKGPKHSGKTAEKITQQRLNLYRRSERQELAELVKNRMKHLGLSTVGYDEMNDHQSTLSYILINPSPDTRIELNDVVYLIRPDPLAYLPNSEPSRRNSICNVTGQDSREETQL

WT Slo2.1 channels = molecular target: T2, WT Slo2.1 channels (Homo sapiens, UniProt Q6UVM3); conditions: 1 mM NFA; ref Dai et al., 2010; cited from earlier work
T2 sequence (Q6UVM3 1-1135): T1 sequence (Q6UVM3 1-1135 A266G) with G266A

O=C(O)c1cccnc1Nc1cccc(C(F)(F)F)c1 [NFA, niflumic acid]
EC50 (A266G Slo2.1 channels): 380 ± 30 µM | Hill coefficient nH of NFA activation (A266G Slo2.1 channels; A266G): 1.2 ± 0.03 | effective valence z (WT Slo2.1 channels): 0.48 e | midpoint of voltage dependence of channel activation (WT Slo2.1 channels): +95 mV
